Experimental data as given in PubChem BioAssay (NCI).
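Protocol summary: plate cells (96-well), add compound at 5 concentrations, incubate 48 h, interpolate endpoints linearly. TGI marks complete inhibition of growth.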

Tests used:
Test in all cases: inhibition of tumour cell growth, NCI panel, 48 h
EKVX NSCLC = test system: EKVX NSCLC
SNB-19 CNS = test system: SNB-19 CNS
SK-MEL-5 melanoma = test system: SK-MEL-5 melanoma
SN12C renal = test system: SN12C renal
CAKI-1 renal = test system: CAKI-1 renal
OVCAR-3 ovarian = test system: OVCAR-3 ovarian
A498 renal = test system: A498 renal
KM12 colon = test system: KM12 colon
SK-OV-3 ovarian = test system: SK-OV-3 ovarian
U251 CNS = test system: U251 CNS

Compound | TGI (EKVX NSCLC) [µM] | TGI (SNB-19 CNS) [µM] | TGI (SK-MEL-5 melanoma) [µM] | TGI (SN12C renal) [µM] | TGI (CAKI-1 renal) [µM] | TGI (OVCAR-3 ovarian) [µM] | TGI (A498 renal) [µM] | TGI (KM12 colon) [µM] | TGI (SK-OV-3 ovarian) [µM] | TGI (U251 CNS) [µM]
COc1cc2c(c(OC)c1OC)-c1ccc(SC)c(=O)cc1[C@@H](NCc1ccc([N+](=O)[O-])cc1)CC2 | > 100 | > 100 | 17.5 | > 100 | > 100 | 0.00965 | 0.0531 | 0.0341 | – | –
Cc1cc(S(=O)(=O)/N=C(/NN)Nc2ccc(Cl)cc2)c(S)cc1Cl | 29.3 | 25.3 | 19.2 | 75.8 | 54.3 | 82.2 | 35.4 | 19.3 | 49.5 | 21.7
Cc1ccc(S(=O)(=O)NC(=O)C2=C3SCCN3C(=O)N(S(=O)(=O)c3ccc(C)cc3)C2c2ccccc2)cc1 (stereo not drawn) | > 100 | > 100 | – | > 100 | > 100 | 59.1 | > 100 | 71.6 | 66.8 | > 100
CC1CCC2(OC1)OC1C(O)C3C4CCC5CC(OC6OC(CO)C(OC7OC(CO)C(O)C(OC8OCC(O)C(O)C8O)C7OC7OC(CO)C(O)C(OC8OC(CO)C(O)C(O)C8O)C7O)C(O)C6O)C(O)CC5(C)C4CCC3(C)C1C2C (stereo not drawn) | 9.8 | 4.34 | 15.9 | 9.88 | 2.68 | 3.32 | 46.6 | 4.77 | 5.57 | 10.2
CCN(CC)C(=O)Cn1c2c(c3ccccc31)CCCC2 | > 100 | > 100 | > 100 | > 100 | > 100 | – | > 100 | – | > 100 | –
Cc1cc(-c2nc3cccc(O)c3s2)ccc1N | > 100 | 7.43 | 48.8 | > 100 | 71.4 | > 100 | – | 36.7 | > 100 | > 100
Cc1ncc(COP(=O)(O)O)c(/C=C2\SC(=S)NC2=O)c1O | > 100 | > 100 | > 100 | > 100 | > 100 | > 100 | > 100 | > 100 | > 100 | > 100
Oc1ccc(Oc2cc3c(cc2Oc2ccc(O)cc2)-c2nc-3nc3[nH]c(nc4nc(nc5[nH]c(n2)c2cc(Oc6ccc(O)cc6)c(Oc6ccc(O)cc6)cc52)-c2cc(Oc5ccc(O)cc5)c(Oc5ccc(O)cc5)cc2-4)c2cc(Oc4ccc(O)cc4)c(Oc4ccc(O)cc4)cc32)cc1 | > 100 | > 100 | > 100 | > 100 | > 100 | > 100 | – | > 100 | > 100 | > 100
CCOC(=O)c1cc(Br)c(-c2onc(C)c2Br)[nH]1 | > 100 | 74.8 | > 100 | > 100 | > 100 | > 100 | > 100 | > 100 | 74.4 | 42.6
CCCCCCCCC#CCCCCCCCCCC[C@@H]1C(=O)O[C@H](C)[C@@H]1O (tested in a mixture with another compound) | 54.9 | 38.1 | 26.8 | 32.3 | 29.1 | 38.6 | > 100 | 21.9 | > 100 | > 100
Cc1c2cccc-2ccc2c3ccccc3n(C(=O)c3ccc(Cl)cc3)c12 | > 100 | > 100 | > 100 | > 100 | > 100 | > 100 | > 100 | > 100 | > 100 | > 100
CCNc1cc2c3c(c1)CCN3CCC2 | > 10 | > 10 | > 10 | > 10 | > 10 | > 10 | > 10 | > 10 | > 10 | > 10
O=C(O)c1ccccc1C1c2ccccc2Oc2ccccc21 | > 100 | > 100 | > 100 | > 100 | > 100 | 90.1 | 82.1 | > 100 | – | > 100
Cc1c([C@H](C)[C@@H]2NC[C@@H](C)C[C@H]2O)ccc2c1C[C@H]1[C@H]2CC=C2C[C@@H](O)CC[C@@]21C | 8.53 | 82.3 | 22.9 | 69.5 | > 100 | 41.5 | 33.6 | 37.2 | 76.9 | 30.3
O=C1NC(N2CCOCC2)=N/C1=C\c1ccc(O)cc1 | > 100 | > 100 | – | > 100 | > 100 | > 100 | – | > 100 | > 100 | > 100
O=C(c1ccc(Cl)cc1)N1CCN=C1c1cc2ccccc2c2ccccc12 | 28 | 30.5 | 27.9 | 30.6 | 35.7 | 35.3 | 28.9 | 30.6 | 29.6 | 30.5
CCOC(=O)C1=C(O)c2ccc(C)cc2C(=O)C1=O | > 100 | > 100 | > 100 | > 100 | > 100 | > 100 | > 100 | > 100 | > 100 | > 100
COc1nc(C#CC2CCCCC2)nc(OC)n1 | 32.6 | 43.6 | 15.3 | 11.1 | 12.5 | 8.97 | 37.2 | 17.9 | > 100 | 16.7
CSc1cnc2ccccc2c1Sc1c[nH]c2ccccc2c1=O | > 45.8 | 65.4 | 26.6 | 76.3 | – | 22 | 47.4 | 22.2 | 14.8 | 23.8
O=C(N=Nc1ccccc1Cl)NNc1ccccc1Cl | – | > 100 | > 100 | > 100 | > 100 | 95.3 | > 100 | – | – | > 100
CCSC1=CC2(O)N(CCc3ccc(OC)c(OC)c3)C(=O)CC2(C(=O)OC)CC1=O (stereo not drawn) | > 100 | > 100 | > 100 | 36.3 | > 100 | 33.6 | > 100 | 33.4 | > 100 | 51.7
CCOc1cc2c(cc1O)C(O)C[C@@H]1[C@@H]2CC[C@]2(C)[C@@H](O)CC[C@@H]12 (stereo partly drawn) | > 100 | > 61.8 | – | > 100 | > 100 | > 100 | 0.497 | > 100 | > 100 | –
